Experiments:
NE uptake = molecular target: T1, NE uptake (Rattus norvegicus, UniProt Q63380); assay: Inhibition of norepinephrine reuptake into rat brain synaptosomes; format: biochemical; details: functional monoamine uptake
T1 construct: norepinephrine (NE) and dopamine into similarly prepared synaptosomes; from tissue; host or cells: rat brain synaptosomes

NE Transporter = NE Transporter (Homo sapiens, UniProt P23975); assay: Human NE transporter IC50/Ki; format: binding
5-HT Transporter [1] = molecular target: 5-HT Transporter (Homo sapiens, UniProt P31645); format: binding
DA uptake = molecular target: T2, DA uptake (Rattus norvegicus, UniProt P23977); assay: Inhibition of dopamine reuptake into rat brain synaptosomes; format: biochemical; details: functional monoamine uptake
T2 construct: norepinephrine (NE) and dopamine into similarly prepared synaptosomes; from tissue; host or cells: rat brain synaptosomes

5-HT Transporter [2] = molecular target: 5-HT Transporter (Rattus norvegicus, UniProt P31652); assay: Rat 5-HT transporter IC50/Ki; format: binding
[3] = Sanchez and Hyttel 1999; cited from earlier work
5-HT uptake = molecular target: T3, 5-HT uptake (Rattus norvegicus, UniProt P31652); assay: Inhibition of reuptake of radiolabeled serotonin into rat brain synaptosomes; format: biochemical; details: functional monoamine uptake
T3 construct: synaptosomes prepared from various regions of rat brains; from tissue; host or cells: rat brain synaptosomes

DA Transporter = DA Transporter (Homo sapiens, UniProt Q01959); format: binding
[4] = test system: receptors for various neurotransmitters, enzymes, other reuptake sites; details: acetylcholine, histamine, norepinephrine, dopamine receptors, monoamine oxidase; cited from earlier work
cytochrome P450 enzymes = details: P450 4A, 2C19, 2D6, 1A2, 2C9, 2E1; cited from earlier work

T2 sequence (P23977 whole entry): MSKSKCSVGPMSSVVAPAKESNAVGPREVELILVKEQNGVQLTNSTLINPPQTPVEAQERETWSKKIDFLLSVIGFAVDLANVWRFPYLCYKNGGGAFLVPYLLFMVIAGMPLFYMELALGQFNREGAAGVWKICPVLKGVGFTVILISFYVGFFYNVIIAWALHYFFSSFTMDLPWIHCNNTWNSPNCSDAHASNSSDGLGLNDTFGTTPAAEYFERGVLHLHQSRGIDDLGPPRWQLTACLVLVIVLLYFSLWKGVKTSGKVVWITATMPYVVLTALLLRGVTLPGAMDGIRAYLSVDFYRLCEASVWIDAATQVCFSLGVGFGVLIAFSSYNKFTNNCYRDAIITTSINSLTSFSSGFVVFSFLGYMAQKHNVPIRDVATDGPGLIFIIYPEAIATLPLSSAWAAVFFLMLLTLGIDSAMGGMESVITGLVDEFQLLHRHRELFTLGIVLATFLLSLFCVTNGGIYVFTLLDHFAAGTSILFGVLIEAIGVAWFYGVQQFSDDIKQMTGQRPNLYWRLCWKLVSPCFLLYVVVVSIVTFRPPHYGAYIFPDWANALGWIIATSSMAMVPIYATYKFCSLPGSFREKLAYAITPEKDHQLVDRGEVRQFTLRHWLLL
T3 sequence (P31652 whole entry): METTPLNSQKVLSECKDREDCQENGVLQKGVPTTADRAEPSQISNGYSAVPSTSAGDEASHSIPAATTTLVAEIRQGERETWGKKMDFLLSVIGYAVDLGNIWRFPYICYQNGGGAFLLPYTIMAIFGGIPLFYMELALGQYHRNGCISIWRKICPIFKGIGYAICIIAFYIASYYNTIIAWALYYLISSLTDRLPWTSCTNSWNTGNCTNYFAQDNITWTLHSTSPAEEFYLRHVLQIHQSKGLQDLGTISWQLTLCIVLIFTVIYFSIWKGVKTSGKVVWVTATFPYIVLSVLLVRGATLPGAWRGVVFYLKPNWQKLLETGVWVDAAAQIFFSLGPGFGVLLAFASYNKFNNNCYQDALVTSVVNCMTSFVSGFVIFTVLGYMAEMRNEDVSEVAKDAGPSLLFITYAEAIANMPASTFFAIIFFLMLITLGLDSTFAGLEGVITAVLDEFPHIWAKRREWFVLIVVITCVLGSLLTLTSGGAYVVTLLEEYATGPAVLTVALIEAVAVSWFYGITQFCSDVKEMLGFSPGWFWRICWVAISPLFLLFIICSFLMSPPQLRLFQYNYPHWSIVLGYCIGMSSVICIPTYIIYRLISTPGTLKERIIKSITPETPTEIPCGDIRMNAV
Chain of 5-HT Transporter (Rattus norvegicus, UniProt P31652) (P31652 whole entry): as above
Chain of NE Transporter (P23975 whole entry): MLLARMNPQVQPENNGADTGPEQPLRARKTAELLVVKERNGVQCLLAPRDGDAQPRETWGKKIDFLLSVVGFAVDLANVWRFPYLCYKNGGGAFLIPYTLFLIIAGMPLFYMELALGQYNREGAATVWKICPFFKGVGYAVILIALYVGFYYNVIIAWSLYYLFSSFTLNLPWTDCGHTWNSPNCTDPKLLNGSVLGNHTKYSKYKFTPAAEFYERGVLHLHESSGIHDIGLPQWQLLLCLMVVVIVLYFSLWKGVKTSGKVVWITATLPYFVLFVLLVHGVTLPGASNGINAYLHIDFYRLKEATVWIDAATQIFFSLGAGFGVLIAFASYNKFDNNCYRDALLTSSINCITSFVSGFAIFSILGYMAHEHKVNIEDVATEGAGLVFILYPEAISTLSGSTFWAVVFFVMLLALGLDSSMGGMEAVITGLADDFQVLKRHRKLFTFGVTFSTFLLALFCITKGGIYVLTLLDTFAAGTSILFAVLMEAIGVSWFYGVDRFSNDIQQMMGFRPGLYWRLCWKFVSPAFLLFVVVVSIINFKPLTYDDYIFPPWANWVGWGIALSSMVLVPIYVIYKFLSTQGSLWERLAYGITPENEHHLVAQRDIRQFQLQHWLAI
T1 sequence (Q63380 1-617): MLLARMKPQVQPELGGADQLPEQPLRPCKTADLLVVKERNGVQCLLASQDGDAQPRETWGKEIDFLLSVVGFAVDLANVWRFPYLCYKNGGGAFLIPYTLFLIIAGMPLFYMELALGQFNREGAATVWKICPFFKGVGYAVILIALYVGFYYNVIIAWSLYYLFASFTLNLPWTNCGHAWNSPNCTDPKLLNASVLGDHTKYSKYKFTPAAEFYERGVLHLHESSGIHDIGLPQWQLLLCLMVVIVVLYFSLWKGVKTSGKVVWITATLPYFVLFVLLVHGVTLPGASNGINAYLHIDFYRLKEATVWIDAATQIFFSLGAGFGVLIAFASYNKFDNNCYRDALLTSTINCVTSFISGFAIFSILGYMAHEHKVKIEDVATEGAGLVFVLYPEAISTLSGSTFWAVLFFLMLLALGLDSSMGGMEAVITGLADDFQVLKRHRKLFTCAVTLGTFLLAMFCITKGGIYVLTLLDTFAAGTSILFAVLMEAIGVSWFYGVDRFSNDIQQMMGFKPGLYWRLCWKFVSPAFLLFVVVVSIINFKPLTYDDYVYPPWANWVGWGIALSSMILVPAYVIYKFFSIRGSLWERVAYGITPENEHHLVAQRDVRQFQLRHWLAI
Chain of DA Transporter (Q01959 whole entry): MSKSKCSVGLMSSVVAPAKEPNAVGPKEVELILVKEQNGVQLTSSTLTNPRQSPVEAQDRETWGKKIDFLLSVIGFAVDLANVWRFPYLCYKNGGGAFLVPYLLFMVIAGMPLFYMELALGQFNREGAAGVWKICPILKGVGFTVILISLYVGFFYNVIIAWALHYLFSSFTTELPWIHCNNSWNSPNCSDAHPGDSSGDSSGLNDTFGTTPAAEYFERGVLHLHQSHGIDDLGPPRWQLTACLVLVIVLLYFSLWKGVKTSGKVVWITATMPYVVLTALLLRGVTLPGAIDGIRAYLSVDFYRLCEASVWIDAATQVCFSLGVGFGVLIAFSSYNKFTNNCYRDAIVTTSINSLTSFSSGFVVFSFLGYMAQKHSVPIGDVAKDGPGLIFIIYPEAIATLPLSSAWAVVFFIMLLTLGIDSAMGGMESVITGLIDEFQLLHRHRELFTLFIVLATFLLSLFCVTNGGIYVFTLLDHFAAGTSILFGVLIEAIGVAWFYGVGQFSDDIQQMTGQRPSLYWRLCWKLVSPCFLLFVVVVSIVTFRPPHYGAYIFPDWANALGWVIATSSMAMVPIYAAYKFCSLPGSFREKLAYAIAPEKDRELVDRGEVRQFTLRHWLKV
Chain of 5-HT Transporter (Homo sapiens, UniProt P31645) (P31645 whole entry): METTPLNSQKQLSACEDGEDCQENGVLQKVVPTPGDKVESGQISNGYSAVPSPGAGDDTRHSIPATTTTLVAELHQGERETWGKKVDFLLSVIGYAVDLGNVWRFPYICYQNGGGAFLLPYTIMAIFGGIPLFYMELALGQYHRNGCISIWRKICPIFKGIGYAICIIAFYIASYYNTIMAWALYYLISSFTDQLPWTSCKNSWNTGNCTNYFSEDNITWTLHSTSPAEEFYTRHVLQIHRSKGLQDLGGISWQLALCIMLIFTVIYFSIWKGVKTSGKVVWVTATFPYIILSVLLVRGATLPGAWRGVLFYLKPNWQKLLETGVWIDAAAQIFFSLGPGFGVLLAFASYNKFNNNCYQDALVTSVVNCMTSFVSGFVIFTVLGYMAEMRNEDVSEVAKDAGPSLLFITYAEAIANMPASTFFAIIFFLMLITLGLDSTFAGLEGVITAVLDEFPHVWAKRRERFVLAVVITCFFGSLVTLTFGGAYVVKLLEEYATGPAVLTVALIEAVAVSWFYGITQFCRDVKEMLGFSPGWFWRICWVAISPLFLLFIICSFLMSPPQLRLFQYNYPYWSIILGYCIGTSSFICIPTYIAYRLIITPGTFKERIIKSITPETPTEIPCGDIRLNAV

Compound | IC50 (NE uptake) [nM] | IC50 (NE Transporter) [nM] | Ki (NE Transporter) [nM] | IC50 (5-HT Transporter [1]) [nM] | Ki (5-HT Transporter [1]) [nM] | IC50 (DA uptake) [nM] | IC50 (5-HT Transporter [2]) [nM] | Ki (5-HT Transporter [2]) [nM] | half-lives compared to citalopram [3] | IC50 (5-HT uptake) [nM] | IC50 (DA Transporter) [nM] | Ki (DA Transporter) [nM] | affinity for neurotransmitter receptors, enzymes and other reuptake sites [4] | inhibition of cytochrome P450 enzyme activity (not by more than) (cytochrome P450 enzymes)
N#Cc1ccc2c(c1)COC2(CCCN)c1ccc(F)cc1 (single isomer, unassigned; (-)) [(−)-Didesmethylcitalopram] | 1300 | 5520 | 5120 | 14 | 5.8 | 2700 | 27 | 5.5 | measurably longer | 130 | 38900 | 17800 |  | 
CN(C)CCCC1(c2ccc(F)cc2)OCc2cc(C#N)ccc21 (racemic) [Racemic Citalopram, (±)-1-(3-dimethylaminopropyl)-1-(4-fluorophenyl)-1,3-dihydroisobenzofuran-5-carbonitrile, reference compound] | 4900 |  |  |  |  |  |  |  |  |  |  |  | negligible affinity | mild degree
N#Cc1ccc2c(c1)COC2(CCCN)c1ccc(F)cc1 (single isomer, unassigned; (+)) [(+)-Didesmethylcitalopram] | 3300 | 24200 | 22400 | 219 | 90 | 11000 | 19 | 3.9 | measurably longer | 180 | 54700 | 25000 |  | 
CNCCCC1(c2ccc(F)cc2)OCc2cc(C#N)ccc21 (single isomer, unassigned; (+)) [(+)-Desmethylcitalopram] | 4100 | 10300 | 9570 |  |  | 7600 | 1.3 | 0.27 |  | 5.8 | 27700 | 12700 |  | 
CNCCCC1(c2ccc(F)cc2)OCc2cc(C#N)ccc21 (racemic) [desmethylcitalopram, (±)-1-(3-methylaminopropyl)-1-(4-fluorophenyl)-1,3-dihydroisobenzofuran-5-carbonitrile] |  |  |  |  |  |  |  |  |  |  |  |  |  | mild degree
(−)-Desmethylcitalopram | 1700 | 815 | 756 | 42 | 17 | 9400 | 11 | 2.3 | measurably longer | 110 | 37600 | 17100 |  | 
